Reference: US20250270159A1, “1-(CYCLOBUTANEMETHYLIDENE)-2, 4, 5-TRIMETHOXYBENZENE COMPOUND AND PREPARATION METHOD AND USE THEREOF” (CHENGDU XINRUI TAIKANG TECHNOLOGY CO., LTD., priority 2023, published 2025)

What was measured:
[1] = test system: Tyrosine hydroxylase (TH) protein expression; assay: TH protein expression by immunohistochemistry in substantia nigra of PD mice; assay type: in vivo, C57 mice; conditions: Group D, CTMB 20 mg/kg ip, after 4 weeks of administration
Description: The mice were randomly divided into a sham operation group (group S, given a blank emulsion with a volume equal to that of the administered group), a model group (group M, given a blank emulsion with a volume equal to that of the administered group), a CTMB group (20 mg/kg, group D), and a levodopa group (levodopa: benserazide hydrochloride=4:1, 12 mg/kg, group L), each group included 10-12 mice, and all of them were administered intraperitoneally.
After completing the evaluation of motor function after 4 weeks of drug administration, the mice were deeply anesthetized, perfused with 20 mL of saline and 20 mL of 4% paraformaldehyde via the heart, and the brains were rapidly severed and extracted from the head, which were then preserved and fixed in 4% paraformaldehyde for 72 h after removal, and then embedded with paraffin to prepare the slices with a thickness of 4 μm for subsequent pathological and histological studies.
Tyrosine hydroxylase (TH) protein expression was detected by immunohistochemistry. […]

[2] = test system: blood-brain barrier permeability, traumatic brain injury (TBI) rats; assay: Blood-brain barrier permeability test (Evans blue) in TBI rats; assay type: in vivo, SD rats; conditions: 30 mg/kg ip 2 h after TBI; 24 h after administration; FIG. 2
Description: The experimental grouping and drug administration plan were as follows. • Sham operation group (Group P): saline was given with the same volume as in the CTMB group; • Model group (T group): a blank emulsion was given with the same volume as in the CTMB group; • Medium dose group (Group M): a dose of 30 mg/kg of CTMB emulsion injection was given.
After 2 h of traumatic brain injury (TBI) modeling, the rats in each group were administered with intraperitoneal injection. After 24 h of the administration, 4% Evans blue solution (2.5 mL/kg) was injected into the right tail vein of the rats, and after 1 h, the rats were deeply anesthetized. The rats were perfused with 100 mL of saline through the heart, the brains were rapidly severed and removed and were immediately divided into the left hemisphere, the right hemisphere, the cerebellum, and the brain stem. The brain tissues were weighed to wet weight, soaked in 10 times volume of pure formamide, incubated at 60° C. for 48 h, and centrifuged at 25° C. and 10000 rpm/min for 30 min. The supernatant was aspirated to detect the Evans blue dye by UV spectrophotometry at 622 nm and a standard curve was plotted for quantification, and the final results were shown as Evans blue content per gram of brain tissue (μg/g).

Compound: COc1cc(OC)c(OC)cc1C=C1CCC1 [CTMB, 1-(cyclobutylidenemethyl)-2,4,5-trimethoxybenzene]
- TH-positive neurons (a percentage of TH-positive neurons to uninjured side, %) [1]: 39.9 ± 12.1^###,***^, && %
- Evans blue exudation (content per gram of brain tissue) [2]: significantly reduces Evans blue exudation
